The record followed here is patent US20240398757A1 (COCRYSTAL PHARMA, INC., priority 2022, published 2024).

For the test, the target named is T1, SARS2 protease (Severe acute respiratory syndrome coronavirus 2, UniProt P0DTD1).
T1 construct: SARS2 protease was added to a final concentration of 30 nM
Kind of test: SARS-CoV-2 protease inhibition assay (SARS2 FRET protease assay). The test is classed as biochemical. Particulars: IC50 (μM), SARS2 protease 30 nM, peptide substrate 1.3 μM, 120 minutes at 37° C., compounds 20 μM to 0.075 nM.
Usually IC50 stands for the concentration needed to halve the response being measured. In turn, `CCCC[C@H](NC(=O)OC(c1ccccc1)C(F)(F)c1cccc(F)c1)C(=O)N[C@@H](CC1CCNC1=O)C(=O)C(=O)NCC` (stereo in doubt) [Compound A173, 2,2-difluoro-2-(3-fluorophenyl)-1-phenylethyl ((S)-1-(((S)-4-(ethylamino)-3,4-dioxo-1-((S)-2-oxopyrrolidin-3-yl)butan-2-yl)amino)-1-oxohexan-2-yl)carbamate] displayed an IC50 of 0.0386 µM. The value for `CC(C)C[C@H](NC(=O)OC(c1ccc(F)cc1)C(F)(F)c1cccc(Cl)c1)C(=O)N[C@H](C=O)C[C@@H]1CCNC1=O` (stereo partly shown) [Compound A1] was 0.0001 µM. Next, `CC(C)C[C@H](NC(=O)OC(c1ccccc1)C(F)(F)c1cccc(F)c1)C(=O)N[C@H](C=O)C[C@@H]1CCNC1=O` (stereo partly shown) [Compound A2]: 0.004 µM; `CC(C)C[C@H](NC(=O)OC(c1ccccc1)C1(c2cccc(Cl)c2)CCCCC1)C(=O)N[C@@H](C[C@@H]1CCNC1=O)C(=O)C(=O)NC1CC1` (stereo partly shown) [Compound A3]: 0.52 µM; `CC(C)C[C@H](NC(=O)O[C@@H](c1ccccc1)C(C)(C)c1cccc(Cl)c1)C(=O)N[C@@H](C[C@@H]1CCNC1=O)C(=O)C(=O)NC1CC1` [Compound A4]: 0.8 µM.

Consider `CC(C)C[C@H](NC(=O)O[C@H](c1ccccc1)C(C)(C)c1cccc(Cl)c1)C(=O)N[C@@H](C[C@@H]1CCNC1=O)C(=O)C(=O)NC1CC1` [Compound A5], for which the concentration for half-maximal inhibition (IC50) came out at 2.79 µM.

For the molecule `CCC(CC)(c1cccc(Cl)c1)C(OC(=O)N[C@@H](CC(C)C)C(=O)N[C@@H](C[C@@H]1CCNC1=O)C(=O)C(=O)NC1CC1)c1ccccc1` (stereo partly shown) [Compound A6], 0.24 µM corresponded to half-maximal inhibition (IC50). The value for `CC(C)C[C@H](NC(=O)OC(c1cccc(Cl)c1)C1(c2cccc(Cl)c2)CCC1)C(=O)N[C@H](C=O)C[C@@H]1CCNC1=O` (stereo partly shown) [Compound A7] was 0.12 µM; that for `CCCCCOC(=O)N[C@@H](CC(C)C)C(=O)N[C@@H](C[C@@H]1CCNC1=O)C(=O)C(=O)NC1CCN(C)CC1` [Compound A8] was 15 µM; that for `CC(C)C[C@H](NC(=O)O[C@H](c1ccc(F)cc1)C(F)(F)c1cccc(Cl)c1)C(=O)N[C@@H](C[C@@H]1CCNC1=O)C(=O)C(=O)NC1CC1` [Compound A9] was 0.0001 µM. The molecule `CC(C)C[C@H](NC(=O)OC(c1ccccc1)C(F)(F)c1cccc(F)c1)C(=O)N[C@@H](C[C@@H]1CCNC1=O)C(=O)C(=O)NC1CC1` (stereo partly shown) [Compound A10] registered an IC50 of 0.005 µM. Molecule `CC(C)C[C@H](NC(=O)OC(c1cccc(F)c1)C(C)(C)c1cccc(Cl)c1)C(=O)N[C@H](C=O)C[C@@H]1CCNC1=O` (stereo partly shown) [Compound A11] showed an IC50 of 0.0001 µM.

As to `CCCCCOC(=O)N[C@@H](CC(C)C)C(=O)N[C@@H](C[C@@H]1CCNC1=O)C(=O)C(=O)NC1CC1` [Compound A12], the midpoint of inhibition, the IC50, lay at 0.876 µM.

Regarding `CCCCCOC(=O)N[C@@H](CC(C)C)C(=O)N[C@H](C=O)C[C@@H]1CCNC1=O` [Compound A13], the IC50 worked out at 0.08 µM. The value for `CCC(CC)(c1cccc(Cl)c1)C(OC(=O)N[C@@H](CC(C)C)C(=O)N[C@@H](C[C@@H]1CCNC1=O)C(=O)C(=O)NC1CC1)c1ccc(F)cc1` (stereo partly shown) [Compound A14] was 0.09 µM; that for `CC(C)C[C@H](NC(=O)O[C@H](c1cccc(F)c1)C(C)(C)c1cccc(Cl)c1)C(=O)N[C@@H](C[C@@H]1CCNC1=O)C(=O)C(=O)NC1CC1` [Compound A15] was 0.31 µM; that for `CC(C)C[C@H](NC(=O)OC(c1cccc(Cl)c1)C1(c2cccc(Cl)c2)CCC1)C(=O)N[C@@H](C[C@@H]1CCNC1=O)C(=O)C(=O)NC1CC1` (stereo partly shown) [Compound A16] was 0.38 µM. The value for `CCN1CCC(NC(=O)C(=O)[C@H](C[C@@H]2CCNC2=O)NC(=O)[C@H](CC(C)C)NC(=O)OC(c2ccccc2)C(CC)(CC)c2cccc(Cl)c2)CC1` (stereo partly shown) [Compound A17] was 30.3 µM; that for `CCC(CC)(c1cccc(Cl)c1)C(OC(=O)N[C@@H](CC(C)C)C(=O)N[C@H](C=O)C[C@@H]1CCNC1=O)c1ccc(F)c(F)c1` (stereo partly shown) [Compound A18] was 0.01 µM.
